The values that follow come from patent publication US7645588B2, “Composition comprising a cell comprising a STIM1 protein and an agent that modulates intracellular calcium and methods of use” (CalciMedica, Inc., priority 2003, dated 2010).

Data set [1] has as its system store-operated calcium entry (SOCE). As to conditions: read-out: IC50 for inhibition of calcium entry; HEK-Zeo control cells; thapsigargin-mediated store depletion followed by readdition of external calcium.
Method: The relative cation permeability was assessed in HEK-Zeo and in HEK[STIM1] cells. Cells were loaded with Fluo-4 and treated with thapsigargin to discharge intracellular Ca^2+ stores (HEK-Zeo cells), or vehicle-treated (both HEK-Zeo and HEK[STIM1] cells). After 15 minutes, 10 mM BaCl2 (final concentration), 10 mM SrCl2 (final concentration), or 1.8 mM CaCl2 (final concentration) was added to elicit cation influx. To quantify the rate of cation influx, the first 30 seconds of data following cation addition was analyzed by linear regression.
For data set [2] the test system is unchanged. As to conditions: read-out: IC50 for inhibition of calcium entry; HEK[STIM1] cells; thapsigargin-mediated store depletion followed by readdition of external calcium. How it is done: (§1) For stable cell lines overexpressing STIM1, pcDNA[STIM1/542-5] was transfected into 3×10^5 HEK293 cells using Effectene (QIAGEN) transfection reagent following the manufacturer's protocol. Forty-eight hours after transfection, cells were harvested and replated under selection with 250 μg/ml Zeocin (Invitrogen). Colonies were selected, amplified, and evaluated for expression of STIM1 mRNA and protein by RT-PCR and western blot, respectively. Limiting dilution of the STIM1 overexpressing colonies generated individual clones.

The test system of a further data set is STIM1-induced Ca2+ entry. As to conditions: HEK[STIM1] cells, absence of store depletion. How it is done: as §1
For a further data set, the system named is Jurkat T cells. The data set is described as follows: IL-2 secretion from Jurkat T cells (ELISA). As to conditions: Jurkat clone 4A5; 2.5 μg/ml PHA + 80 nM TPA for 20 hours. The data set is classed as cell-based, human. An excerpt: To test this prediction, a stable Jurkat T cell line expressing a short hairpin siRNA to suppress expression of STIM1 was generated as follows. Oligonucleotides corresponding to the STIM1-1140 siRNA (sense oligo, 5′-GATCCCGGCTCTGGATACAGTGCTCTTCAAGAGAGAGCACTGTATCCAGAGCCTTTTTTGGAAA-3′ SEQ ID NO: 99; antisense oligo, 5′-AGCTTTTCCAAAAAAGGCTCTGGATACAGTGCTCTCTCTTGAAGAGCACTGTATCCAGAGCCGG-3′ SEQ ID NO: 100) were annealed and ligated into pSilencer 2.1-U6 neo (Ambion) according to the manufacturer's protocol. Correct inserts were verified by DNA sequencing. For the control, a non-silencing scrambled siRNA (Negative Control oligo; Ambion) was generated as above. 2×10^6 Jurkat T cells were electroporated with 5 μg plasmid using a Bio-Rad Gene Pulser (140V, 30 msec, 4 pulses). Two days after transfection, cells were harvested and resuspended in media containing G-418 selection at a concentration of 1×10^4 cells/ml. 1 ml of cells/well was plated in 24-well plates. […]
To measure IL-2 secretion from Jurkat T cells, cells were plated in a 96 well plate at a density of 1.5×10^5 cells/well. […] The media was collected and analyzed for IL-2 levels by ELISA (BioSource) according to the manufacturer's protocols. […]
A general note: ELISA stands for enzyme-linked immunosorbent assay.

Where two headings read alike, the source gives them in different places.

What is called IC50 is the concentration that inhibits the measured activity by half. As to `NCCOB(c1ccccc1)c1ccccc1` [2-APB, 2-aminoethoxydiphenyl borate], the IC50 was determined as 11.8 µM in data set [1], 10.5 µM in data set [2] and 10.8 µM with STIM1-induced Ca2+ entry (read-out: IC50 for inhibition of constitutive calcium entry). Moreover, the “effect on calcium entry at lower concentrations” value with STIM1-induced Ca2+ entry (lower concentrations of 2-APB (biphasic effect)) is given as “potentiated”.

B1: STIM1-1140 short hairpin siRNA: Short hairpin siRNA corresponding to STIM1-1140, expressed from pSilencer 2.1-U6 neo in stable Jurkat clone 4A5 (nucleic acid)
chain 1: GATCCCGGCTCTGGATACAGTGCTCTTCAAGAGAGAGCACTGTATCCAGAGCCTTTTTTGGAAA
chain 2: AGCTTTTCCAAAAAAGGCTCTGGATACAGTGCTCTCTCTTGAAGAGCACTGTATCCAGAGCCGG
modifications: target site or template, no part of the molecule
For the molecule B1, the “secretion of IL-2 upon stimulation” value with Jurkat T cells is listed as “completely blocked”.
